# Measured values: US20010041708A1, “Compositions for preventing cellulite in mammalian skin” (Zen-Bio, Inc., priority 2000, published 2001)
# What was measured:
# 3T3-L1 preadipocytes [1] = experiment: TG content of 3T3-L1 preadipocytes; format: cell-based, murine
# [2] = system: 3T3-L1 adipocyte cell line; experiment: Lipolysis of triglycerides (glycerol release) in 3T3-L1 adipocyte cell line; format: cell-based, rodent
# PPARγ2 = PPARγ2 protein expression in 3T3-L1 preadipocytes; format: cell-based, murine
# [3] = system: stromal vascular (SV) cells from human adipose tissue; experiment: De novo lipogenesis (14C-glucose incorporation into cellular lipid); format: cell-based; details: Exp. 5a
# Protocol: Experiments 5a and 5b were designed to determine if the trans-10, cis-12 CLA-mediated reduction in TG content was due to decreased lipogenesis and/or increased lipolysis. In Experiment 5a (lipogenesis), SV cells were seeded at a density of 3×10^4/cm^2 and continuously treated with increasing concentrations (3, 10, or 30 uM) of either linoleic acid, cis-9, tran-11 CLA, or trans-10, cis-12 CLA. A set of control cultures received vehicle (BSA) plus TZD. All cultures received differentiation media (days 1-3), adipocyte media (days 4-9), and low-glucose (˜5 mM) adipocyte media (days 10-12) prior to measuring de novo lipogenesis. On day 12, ^14C-labeled glucose incorporation into the lipid fraction of the cultures was measured for 2 h and, following lipid extraction, the radioactivity in the lipid fraction was determined by scintillation counting. Time course data (not shown) indicated a linear increase in radiolabeled glucose incorporation into lipid over 2 h.
# Incorporation of ^14C-glucose into cellular lipid was determined on day 12 of differentiation in cultures chronically treated with fatty acids or vehicle. Following the addition of fatty acids and low glucose (˜5 mM) medium to the cultures on day 12, 1.0 μCi [U-^14C]-glucose ([U-^14C]-D-glucose; SA ˜250 mCi/mmol, ICN, Costa Mesa, Calif.)/mL medium was added to the cultures for 2 h. Our time course study (data not shown) indicated a linear increase in radiolabeled glucose incorporation into lipid over a 2 h period. After 2 h, media containing unincorporated ^14C-glucose was immediately removed and the cultures were washed with 1 mL HBSS to remove unincorporated ^14C-glucose. An additional 1 mL of HBSS was added and, after vigorous tritaration, cells were transferred to glass vials. Five milliliters of a chloroform:methanol (2:1) solution was added to each vial and they were vortexed for 1 min. All samples were then centrifuged for 5 min at 1000×g to further separate the hydrophobic and hydrophilic phases. The lower hydrophobic phase was removed from the tubes and dried under nitrogen at 40° C. Five milliliters of scintillation cocktail (Scinti Verse, Fisher Scientific, Norcross, Ga.) was added to each sample, and the ^14C content was determined by liquid scintillation counting on a Beckman LS 6000 Scintillation Counter (Beckman Instruments, Palo Atlo, Calif.). […] The radioactivity in the lipid fraction from these cultures was subtracted from the total counts. Cell numbers were determined from parallel treatment groups in separate culture dishes at the time of radioisotope addition to the medium. Therefore, mean ^14C-glucose incorporation is expressed as cpm/10^6 cells.
# aP2 = aP2 protein expression in 3T3-L1 preadipocytes; format: cell-based, murine
# 3T3-L1 preadipocytes [4] = experiment: Fatty acid composition of neutral and phospholipid fractions of treated cultures; format: cell-based, murine
# [5] = system: stromal vascular (SV) cells from human adipose tissue; experiment: Triglyceride (TG) content of differentiating primary cultures of SV cells; format: cell-based; details: day 11
# Protocol: Abdominal adipose tissue (Exp. 1-5) and thigh adipose tissue (Exp. 5b) were obtained from middle-aged females with body mass indexes <30.0 during liposuction or elective surgery. Subsequently, tissue was minced and enzymatically digested for 45 min in a Krebs-Ringer buffer containing 1 mg/mL collagenase (CLS-1, Worthington Biochemical Corp, Lakewood, N.J.), 15 mg/mL bovine serum albumin (BSA), 5 mM glucose and 100 mM HEPES (pH 7.4). Digestion was carried out at a 5 mL/1 g ratio (digestion solution: tissue mass). The digesta was then filtered through 200- and 60-micron mesh and pelleted at 600×g for 5 min. The SV cells were resuspended in a RBC lysis buffer for 10 min and then filtered and recentrifuged to remove contaminating […]. Cultures of SV cells were grown in proliferation medium containing 90% DME/Ham's F-10 (1:1, v/v), 10% (v/v) fetal bovine serum (FBS), 15 mM HEPES (pH 7.4), 60 U/mL penicillin, 60 U/mL streptomycin, and 25 ug/mL fungizone. Cultures were incubated at 37° C. in a humidified […]:CO2 (90:10%) atmosphere. SV cells were grown to 80% confluency and then cryopreserved in liquid nitrogen in aliquots (2×10^6 cells/mL).
# Cryopreserved aliquots were subsequently thawed, seeded in T-150 flasks (e.g., 1 vial per 2 T-150 flasks), and grown in proliferation media until 80% confluent. At this time the cells were removed via trypsinization, seeded (3×10^4/cm^2, except for Exp. 1) in 24-well or 96-well (Exp. 5b) Falcon dishes, and allowed to attach for 24 h in proliferation medium. Following attachment, cultures were grown in differentiation medium for the next 3 d which contained DME/Ham's F-10 (1:1,v/v), 15 mM HEPES (pH 7.4), 33 uM biotin, 17 uM pantothenate, 100 nM human insulin, 1 uM dexamethasone (DEX), 60 U/mL penicillin, 60 U/mL streptomycin, 25 ug/mL fungizone, 0.25 mM isobutylmethylxanthine (IBMX), and TZD (Exp. 1 & 2=BRL 49653; Exp. 3-5=Zen Bio's proprietary reagent). Thereafter, cultures were exposed to adipocyte medium consisting of 90% DME/Ham's F-10 (1:1,v/v), 15 mM HEPES (pH 7.4), 3% FBS (v/v), 33 uM biotin, 17 uM pantothenate, 100 nM human insulin, 1 uM DEX, 60 U/mL penicillin, 60 U/mL streptomycin, and 25 ug/mL fungizone. Adipocyte media was replaced every 3 d. […] After 18 day in culture, the majority of the cells contained visual lipid droplets.
# Experiment 1 was designed to determine optimal culturing conditions during differentiation of primary cultures of SV cells isolated from human adipose tissue. Specifically, the experiment was designed to determine how seeding density and thiazolidinedione (TZD; PPARγ-agonist BRL 49653) concentration influenced TG content (ug/10^6cells). SV cells were seeded at increasing densities (2-, 3-, or 4×10^4/cm^2) in differentiation media containing 0, 1, or 10 uM TZD (BRL 49653) in this 3×3 factorial design. All cultures received the same adipocyte media after 3 d of differentiation. The cultures were harvested on day 11-12 of differentiation and TG content and cell number were measured. Another set of cultures was stained with Oil Red O and counterstained with Mayer's hematoxylin to assess cellular differentiation potential (n=3 per treatment combination).
# In Experiment 2 the impact of linoleic acid and the trans-10, cis-12 isomer of CLA on TG accumulation in these cells was examined. SV cells were seeded at a density of 3×10^4/cm^2 and continuously treated with either 10 uM linoleic acid, 100 uM linoleic acid, 10 uM trans-10, cis-12 CLA, or 100 uM trans-10, cis-12 CLA, and grown under our normal differentiation protocol. One set of control cultures contained only vehicle (BSA) and another contained vehicle plus TZD (BRL 49653). TG content and cell number were measured on day 11 of differentiation.
# The objective of Experiment 3 was to evaluate the dose response of trans-10, cis-12 CLA, cis-9, trans-11 CLA, and linoleic acid on TG content of the cultures. […]
structure (smiles),measurement,setting,value
"CCCCC/C=C\C=C\CCCCCCCCC(=O)O [trans-10, cis-12 CLA, 10-trans, 12-cis conjugated linoleic acid]","TG content, treatment during only the first 3 d of differentiation",3T3-L1 preadipocytes [1],not sufficient to lower TG concentrations
same,Triglyceride content in 3T3-L1 adipocyte cells,3T3-L1 preadipocytes [1]; 3T3-L1 adipocyte cell line,decreasing triglyceride content
same,TG-lowering effect,3T3-L1 preadipocytes [1]; 3T3-L1 preadipocytes,responsible for the TG-lowering effects
same,"TG content, treatment during entire period of differentiation",3T3-L1 preadipocytes [1]; vs treatment during last 3 d,reduced TG content to a greater extent than treatment during the last 3 d of differentiation
same,Glycerol release by the cells,[2],increased glycerol release
same,PPARγ2 protein expression,PPARγ2; after 6 d of treatment,decreased
same,PPARγ2 protein expression compared to BSA controls,PPARγ2; day 2 of differentiation,increased PPARγ2 expression
same,PPARγ2 protein expression,PPARγ2; day 4 of differentiation,no effect on PPARγ2 protein expression
same,Less 14C-glucose incorporated into cellular lipid compared to TZD treated vehicle controls,"[3]; 30 uM, day 12, 2 h",80%
same,"Incorporation of 14C-glucose into cellular lipid per 10^6 cells, dose response","[3]; 3, 10, 30 uM, day 12",decreased
same,aP2 protein expression,aP2; after 6 d of treatment,decreased
same,aP2 protein expression,aP2; day 2 or 4 of differentiation,did not affect aP2 protein expression
same,Amount of cis-9 oleic acid,3T3-L1 preadipocytes [4],increased
same,Level of linoleic acid (18:2),3T3-L1 preadipocytes [4],increased
same,Amount of cis-11 oleic acid (18:1) compared to BSA controls,"3T3-L1 preadipocytes [4]; 50 uM, neutral and polar lipid fractions",lower amounts
same,Amount of palmitoleic acid (16:1) compared to BSA controls,"3T3-L1 preadipocytes [4]; 50 uM, neutral lipid fraction",lower amounts
same,Arachidonic acid (AA) in the phospholipid fraction,3T3-L1 preadipocytes [4]; increasing level in culture,dose-dependent increase
same,Incorporation into cellular lipid fractions,3T3-L1 preadipocytes [4]; neutral and phospholipid fractions,incorporated into the neutral and phospholipid fractions
same,Less TG (ug/10^6 cells) than TZD-supplemented vehicle control cultures,"[5]; Exp. 2, 10 uM, continuous treatment",76%
same,TG content vs other treatments / TZD treated vehicle controls,"[5]; Exp. 2, 100 uM, continuous treatment",not significantly different
same,TG content vs TZD treated vehicle controls,"[5]; Exp. 3, 30 uM",not significantly different
same,"TG content, dose response","[5]; Exp. 3, 1-10 uM",decreased
same,Less TG content compared to TZD treated vehicle controls,"[5]; Exp. 4, 10 uM alone",approximately 60%
